The values that follow are results of earlier work, collected in patent US20080302375A1 (priority 2003, published 2008).

Structures are written as SMILES.

The conditions of this data set: upon the smoking of a cigarette.

`CN1CCCC1c1cccnc1` (stereo not shown) [nicotine, 3-(1-methyl-2-pyrrolidinyl)-pyridine]: the “time for nicotine to reach the brain after inhalation” value was “ten”.
